Assay results taken from PMC7175281, “Polyphenolic Compounds from Lespedeza Bicolor Root Bark Inhibit Progression of Human Prostate Cancer Cells via Induction of Apoptosis and Cell Cycle Arrest” (Biomolecules, 2020).
Entries after “also recorded” stand apart in the source; their conditions may differ.

Tests used:
[1] = tested on: PC-3 human prostate cancer cells; assay: MTT assay, PC-3 cells; assay type: cell-based; details: for IC50: PC-3 cells, MTT, treated for 48 h; for Selectivity index (MRC-9 vs. PC-3): [IC50 in MRC-9 cells] / [IC50 in PC-3 cells]
Description: (§1) The human prostate cancer cell lines PC-3 [docetaxel-resistant, androgen-independent, AR-FL(-), AR-V7(-)], 22Rv1 [docetaxel-sensitive, androgen-independent, AR-FL(+), AR-V7(+)], and the human non-cancer fibroblast cell line MRC-9 were used. PC-3 and 22Rv1 were purchased from ATCC (Manassas, VA, USA). MRC-9 cells were kindly donated by Prof. Dr. med. Sonja Loges (University Medical Center Hamburg-Eppendorf, Hamburg, Germany). Cells were cultured according to the manufacturers’ protocol in 10% FBS/RPMI (PC-3 and 22Rv1) or 10% FBS/DMEM (MRC-9) medium.
(§2) In vitro drug sensitivity MTT assay was performed as previously described. In total, 6000 cells/well were seeded in 96-well plates, incubated overnight, and treated with the investigated drugs for 48 h.

[2] = tested on: 22Rv1 human prostate cancer cells; assay: MTT assay, 22Rv1 cells; assay type: cell-based; details: treated for 48 h
Description: as §1, §2

[3] = tested on: MRC-9 human non-cancer fibroblast cells; assay: MTT assay, MRC-9 non-cancer fibroblasts; assay type: cell-based; details: treated for 48 h
Description: as §1, §2

PC-3 cells [4] = assay: Cell cycle progression by flow cytometry (PI staining); assay type: cell-based, human; details: 24 h (Figure 4)
Description: (§3) The effect of the compounds on apoptosis induction and cell cycle progression was analyzed by flow cytometry technique using PI staining as reported before. Cells (0.2 × 10^6 cells/well) were seeded in six-well plates, incubated overnight, and treated with the investigated drugs for 48 h. The cells were further harvested, fixed with 70% EtOH/H2O, stained with propidium iodide (PI), and analyzed using a FACS Calibur machine (BD Bioscience, San Jose, CA, USA). The results were quantified using BD Bioscience Cell Quest Pro software (v.5.2.1., BD Bioscience).
Next, we examined the effects of the isolated compounds on the cell cycle progression of PC-3 cells. For compounds 1–3, a significant accumulation of the cells in S-phase as well as slight accumulation in G2/M-phase was observed (Figure 4).
Figure 4 Treatment effects on the progression of the cell cycle of PC-3 cells. Cells were treated with the investigated compounds for 24 h. The effects were analyzed by flow cytometry. Cisplatin was used as a positive control. * p ≤ 0.05 (Student’s t-test).

[5] = tested on: CDK1–CDK9 mRNA in PC-3 cells; assay: qPCR of CDK1-CDK9 mRNA expression; assay type: cell-based, human; details: 24 h, normalized to GAPDH (Figure 5)
Description: The CDKs gene expression was measured using qPCR technique. PC-3 cells were seeded in Petri dishes (1 × 10^6 cells per ø 6 cm dish in 5 mL) in standard culture media, incubated overnight and treated with the investigated drugs in the fresh culture media for 24 h. Cells were harvested using the cell scraper, washed with PBS and homogenized using QIAshredder (QIAGEN, Hilden, Germany). The total RNA was isolated using PureLink® RNA Mini Kit (Invitrogen, Carlsbad, CA, USA) and the on-column DNA digestion using PureLink™ DNase (Invitrogen). Correspondent RNA (2 µg in 30 µL) and was transcribed into cDNA using Maxima First Strand cDNA Synthesis Kit for RT-qPCR (Thermo Scientific, Vilnius, Lithuania). The following qPCR was performed using 2X KAPA SYBR FAST qPCR Master Mix Optimized for Roche LightCycler 480 (KAPA biosystems, Worburn, MA, USA) according to the manufacturer’s protocol. In total, 20 ng of the template cDNA and 2 pmol of primers were used for each reaction. The PCR conditions were 30 s at 95 °C, followed by 40 cycles of 15 s at 95 °C, 5 s at melting temperature (Tm), and 26 s at 72 °C (fluorescence measurement). Melting curve analysis was performed under the following conditions directly after the PCR run: 10 s at 95 °C, 60 s at 65 °C and 1 s at 97 °C. Relative gene expression was calculated using the 2^-∆∆CT method. The expression of CDKs was normalized to GAPDH gene expression. The analysis was performed using primers, purchased from Eurofins MWG-Biotech AG (Ebersberg, Germany).
Due to the significant alterations of the cell cycle, we further investigated the effects of the isolated compounds on the cyclin-dependent kinases (CDKs). These proteins are known to control proliferation as well as some apoptotic processes. We have examined the expression of mRNAs corresponding to the nine most studied CDKs known to be involved in the cell cycle progression of cancer cells, namely, CDK1–CDK9. […] Remarkably, these effects correlated well with the cytotoxicity of the isolated compounds.
Figure 5 Expression of mRNA correspondent to CDK1-9 in PC-3 cells treated with the isolated compounds 1–8 for 24 h. The target gene expression was normalized to GAPDH gene expression. * p ≤ 0.05 (Student’s t-test).

PC-3 cells [6] = assay: DNA fragmentation / apoptosis induction by flow cytometry (PI staining, sub-G1); assay type: cell-based, human; details: PC-3 cells, 0.5, 1, 5 and 10 µM, 24 h (Figure 3)
Description: as §3
To investigate the mechanism of action contributing to the cytotoxicity in PC-3 cells, we investigated the effects on DNA fragmentation, a well-established marker of cellular apoptosis. Therefore, we evaluated the effects of the isolated compounds at four different concentrations of 0.5 µM, 1 µM, 5 µM, and 10 µM by flow cytometry (Figure 3). […] Therefore, prenylated dimeric flavonoid 8 may either reveal a non-apoptotic character of cell death or a predominantly antiproliferative rather than cytotoxic effect.
Figure 3 Effect of natural compounds on DNA fragmentation of PC-3 cells. Cells were treated with the investigated compounds for 24 h. The effects were analyzed by flow cytometry. Cells detected as sub-G1 population were considered to be apoptotic. Cisplatin (Cis) was used as a positive control. * p ≤ 0.05 (Student’s t-test).

[7] = Homo sapiens, MRC9, MRC-9 cells

Compound	IC50 ([1]; Homo sapiens)	Selectivity index (MRC-9 vs. PC-3) [1]	IC50 ([2]; Homo sapiens)	IC50 [3, 7]	Effect on cell cycle progression (PC-3 cells [4])	Effect on expression of mRNA corresponding to CDK1-9 [5]	IC50 [1]	IC50 [2]	IC50 ([3]; MRC-9 cells)	Apoptosis induction (DNA fragmentation, sub-G1 population) (PC-3 cells [6])
CC(C)=CCC/C(C)=C/Cc1c(O)c(O)cc(C(=O)C(=O)c2ccc(O)cc2O)c1O [Compound 6]	19.3 µM	>2.6	46.9 µM	> 50 µM						
CC(C)=CCC[C@]1(C)C=Cc2c(c(O)cc3c2O[C@H]2c4ccc(O)cc4OC[C@@H]32)O1 [Compound 4]	16.4 µM	1.66	29.5 µM	27.2 µM						
COc1cc2c(c(C/C=C(\C)CCC=C(C)C)c1O)O[C@H]1c3ccc(O)cc3OC[C@@H]21 [Compound 7, (6aR,11aR)-8-O-methyl-6a,11a-dihydrolespedezol A2]	14.9 µM	1.64	30.5 µM	24.4 µM	G1-phase arrest instead of S-phase arrest	did not exhibit this activity				
CC(C)=CCC[C@@]1(C)C=Cc2c(c(O)cc3c2O[C@H]2c4ccc(O)cc4OC[C@@H]32)O1 [Compound 5]	15.2 µM	1.62	35.8 µM	24.6 µM						
N.N.[Cl][Pt][Cl] [Cisplatin, reference compound]		0.72					21 µM	4.53 µM	15.1 µM	
CC(C)=CCC/C(C)=C/Cc1c(O)c(O)cc2c1O[C@H]1c3cc(CC=C(C)C)c(O)cc3OC[C@@H]21 [Compound 3]	2.1 µM	7.99	6.38 µM	16.8 µM		inhibitory effects; also recorded: strongest inhibitory effect				most pronounced apoptosis-inducing effect
CC(C)=CCC/C(C)=C/Cc1c(O)c(O)cc2c3c(oc12)-c1ccc(O)cc1OC3 [Compound 1]	6.73 µM	7.21	20.1 µM	48.5 µM		inhibitory effects				
CC(C)=CCC/C(C)=C/Cc1c(O)c(O)cc2c1O[C@H]1c3ccc(O)cc3OC[C@@H]21 [Compound 2]	5.24 µM	7.17	13.8 µM	37.6 µM		inhibitory effects; also recorded: fairly active				
CC(C)=CCC/C(C)=C/Cc1c(O)c(C(=O)c2c(-c3ccc(O)cc3O)oc3c(C/C=C(\C)CCC=C(C)C)c(O)c(O)cc23)cc2c1O[C@H]1c3ccc(O)cc3OC[C@@H]21 [Compound 8, Lespebicolin A]	9.24 µM	2.59	17.5 µM	23.9 µM	could not induce an S-phase cell cycle arrest	did not exhibit any pronounced effect on CDKs mRNA expression				apart from structurally different lespebicolin A (8)
